In patent US10034477B2, “Pyrido-1,3-oxazine-2,4-dione compounds with fungicidal activity” (Dow AgroSciences LLC, priority 2016, dated 2018):
Where two headings read alike, the source gives them in different places.

Tests used:
Puccinia triticina = assay: Fungicidal activity: wheat brown rust (PUCCRT), disease control on wheat seedlings; assay type: in vivo; conditions: LV activity at 121.5 g/H, wheat (variety Yuma)
Description: (§1) Technical grades of materials were dissolved in acetone, which were then mixed with nine volumes of water (H2O) containing 110 ppm Triton X-100. The fungicide solutions were applied onto wheat seedlings using an automated booth sprayer to run-off. All sprayed plants were allowed to air dry prior to further handling. All fungicides were evaluated using the aforementioned method for their activity vs. all target diseases, unless stated otherwise. Wheat leaf blotch and brown rust activity were also evaluated using track spray applications, in which case the fungicides were formulated as EC formulations, containing 0.1% Trycol 5941 in the spray solutions. Wheat plants (variety Yuma) were grown from seed in a greenhouse in 50% mineral soil/50% soil-less Metro mix until the first leaf was fully emerged, with 7-10 seedlings per pot. These plants were inoculated with an aqueous spore suspension of Zymoseptoria tritici either prior to or after fungicide treatments. After inoculation the plants were kept in 100% relative humidity (one day in a dark dew chamber followed by two to three days in a lighted dew chamber at 20° C.) to permit spores to germinate and infect the leaf. The plants were then transferred to a greenhouse set at 20° C. for disease to develop. When disease symptoms were fully expressed on the 1st leaves of untreated plants, infection levels were assessed on a scale of 0 to 100 percent disease severity. Percent disease control was calculated using the ratio of disease severity on treated plants relative to untreated plants. Wheat plants (variety Yuma) were grown from seed in a greenhouse in 50% mineral soil/50% soil-less Metro mix until the first leaf was fully emerged, with 7-10 seedlings per pot. These plants were inoculated with an aqueous spore suspension of Puccinia triticina either prior to or after fungicide treatments. After inoculation the plants were kept in a dark dew room at 22° C. with 100% relative humidity overnight to permit spores to germinate and infect the leaf. The plants were then transferred to a greenhouse set at 24° C. for disease to develop. Fungicide formulation, application and disease assessment followed the procedures as described in the Example A. Results of the evaluations are shown below in Table 4.

Phakopsora pachyrhizi = assay: Fungicidal activity: Asian soybean rust (PHAKPA), disease control on soybean seedlings; assay type: in vivo; conditions: soybean (variety Williams 82)
Description: Technical grades of materials were dissolved in acetone, which were then mixed with nine volumes of H2O containing 0.011% Tween 20. The fungicide solutions were applied onto soybean seedlings using an automated booth sprayer to run-off. All sprayed plants were allowed to air dry prior to further handling. Soybean plants (variety Williams 82) were grown in soil-less Metro mix, with one plant per pot. Two week old seedlings were used for testing. Plants were inoculated either 3 days prior to or 1 day after fungicide treatments. Plants were incubated for 24 h in a dark dew room at 22° C. and 100% relative humidity then transferred to a growth room at 23° C. for disease to develop. Disease severity was assessed on the sprayed leaves.

Zymoseptoria tritici = assay: Fungicidal activity: leaf blotch of wheat (SEPTTR), disease control on wheat seedlings; assay type: in vivo; conditions: LV activity at 121.5 g/H, wheat (variety Yuma)
Description: as §1, with “plants.” for “plants. Wheat plants (variety Yuma) were grown from seed in a greenhouse in 50% mineral soil/50% soil-less Metro mix until the first leaf was fully emerged, with 7-10 seedlings per pot. These plants were inoculated with an aqueous spore suspension of Puccinia triticina either prior to or after fungicide treatments. After inoculation the plants were kept in a dark dew room at 22° C. with 100% relative humidity overnight to permit spores to germinate and infect the leaf. The plants were then transferred to a greenhouse set at 24° C. for disease to develop. Fungicide formulation, application and disease assessment followed the procedures as described in the Example A. Results of the evaluations are shown below in Table 4.”

[1] = 24 h, 1 Day Protectant, read-out: PUCCRT 1DP disease control rating
[2] = 72 h, 3 Day Curative, read-out: PUCCRT 3DC disease control rating
[3] = 24 h, 1 Day Protectant, read-out: PHAKPA 1DP disease control rating
[4] = 24 h, 1 Day Protectant, read-out: SEPTTR 1DP disease control rating
[5] = 72 h, 3 Day Curative, read-out: SEPTTR 3DC disease control rating
[6] = 72 h, 3 Day Curative, read-out: PHAKPA 3DC disease control rating

Row | Compound | melting point | pest or weed control at 121.5 g/ha (Puccinia triticina; [1]) | pest or weed control at 121.5 g/ha (Puccinia triticina; [2]) | pest or weed control at 25 ppm (Phakopsora pachyrhizi; [3]) | pest or weed control at 121.5 g/ha (Zymoseptoria tritici; [4]) | pest or weed control at 121.5 g/ha (Zymoseptoria tritici; [5]) | pest or weed control at 25 ppm (Phakopsora pachyrhizi; [6])
1 | COc1ccnc2c(=O)n([C@@H](C)C(=O)O[C@@H](C)C(c3ccc(F)cc3)c3ccc(F)cc3)c(=O)oc12 [Compound 1] | 68 to 84 °C | > 80% | ≤ 80% | ≤ 80% | > 80% | > 80% | 
2 | COc1cc(Cl)ccc1C(c1ccc(Cl)cc1OC)[C@H](C)OC(=O)[C@H](C)n1c(=O)oc2c(OC)ccnc2c1=O [Compound 26] |  | > 80% |  | ≤ 80% | > 80% | > 80% | 
3 | COc1ccnc2c(=O)n([C@@H](C)C(=O)O[C@@H](C)C(c3ccc(Cl)cc3)c3ccc(Cl)cc3)c(=O)oc12 [Compound 27] |  | ≤ 80% |  | ≤ 80% | > 80% | > 80% | ≤ 80%
4 | COc1ccnc2c(=O)n([C@@H](C)C(=O)O[C@@H](C)[C@@H](c3ccccc3)c3ccc(C(F)(F)F)cc3)c(=O)oc12 [Compound 28] |  | ≤ 80% | ≤ 80% |  | > 80% | > 80% | ≤ 80%
5 | COc1ccnc2c(=O)n([C@@H](C)C(=O)O[C@H](C(C)C)[C@H](C)Oc3ccc(C)cc3)c(=O)oc12 [Compound 30] |  | > 80% | ≤ 80% | ≤ 80% | ≤ 80% | ≤ 80% | 
6 | CCC[C@@H](Oc1ccc(C)cc1)[C@H](C)OC(=O)[C@H](C)n1c(=O)oc2c(OC)ccnc2c1=O [Compound 31] |  | > 80% | ≤ 80% | ≤ 80% |  | ≤ 80% | ≤ 80%
7 | COc1ccnc2c(=O)n([C@@H](C)C(=O)O[C@@H](C)C(c3ccc(C)cc3)c3ccc(C)cc3)c(=O)oc12 [Compound 32, (S)-1,1-di-p-tolylpropan-2-yl-(S)-2-(8-methoxy-2,4-dioxo-2H-pyrido[2,3-e][1,3]oxazin-3(4H)-yl)propanoate] |  | > 80% | ≤ 80% | ≤ 80% | > 80% | > 80% | ≤ 80%
8 | COc1ccnc2c(=O)n([C@@H](C)C(=O)O[C@@H](C)[C@@H](c3ccc(C)cc3)c3ccc(F)cc3C)c(=O)oc12 [Compound 33] |  | > 80% | ≤ 80% | > 80% | > 80% | > 80% | ≤ 80%
